Assay results from patent publication US20070049564A1 (Wyeth, priority 2005, published 2007).
Converted amounts (≈) assume the structure as drawn. Read-outs that look alike come from different tables or passages of the source.

Experiments:
[1] = system: S. pneumoniae* GC 4465; assay: MIC, broth microdilution; details: Streptococcus pneumoniae, S. pneumoniae* GC 4465
[2] = system: E. coli GC 6465; assay: MIC, broth microdilution; details: Escherichia coli, GC6465, E. coli GC 6465
[3] = system: E. coli GC 2231; assay: MIC, broth microdilution; details: Escherichia coli, GC2231, E. coli GC 2231
[4] = system: E. faecium GC 4556; assay: MIC, broth microdilution; details: Enterococcus faecium, GC4556, E. faecium GC 4556
[5] = system: E. coli GC 2203; assay: MIC, broth microdilution; details: Escherichia coli, GC2203, E. coli GC 2203
[6] = system: S. typhimurium GC 2172; assay: MIC, broth microdilution; details: Salmonella enterica, TYPHIMURIUM, S. typhimurium GC 2172
[7] = system: E. coli GC 2234; assay: MIC, broth microdilution; details: Escherichia coli, GC2234, E. coli GC 2234
[8] = system: E. coli GC 2235; assay: MIC, broth microdilution; details: Escherichia coli, GC2235, E. coli GC 2235
[9] = system: E. coli GC 2272; assay: MIC, broth microdilution; details: Escherichia coli, GC2272, E. coli GC 2272
[10] = system: S. aureus GC 1131; assay: MIC, broth microdilution; details: Staphylococcus aureus, GC1131, S. aureus GC 1131
[11] = system: E. faecalis GC 2267; assay: MIC, broth microdilution; details: Enterococcus faecalis, GC2267, E. faecalis GC 2267
[12] = system: S. aureus GC 6466; assay: MIC, broth microdilution; details: Staphylococcus aureus, GC6466, S. aureus GC 6466
[13] = system: S. aureus GC 1079; assay: MIC, broth microdilution; details: Staphylococcus aureus, GC1079, S. aureus GC 1079
[14] = system: E. coli GC 4560; assay: MIC, broth microdilution; details: Escherichia coli, GC4560, E. coli GC 4560
[15] = system: E. coli GC 2236; assay: MIC, broth microdilution; details: Escherichia coli, GC2236, E. coli GC 2236
[16] = system: S. aureus GC 6467; assay: MIC, broth microdilution; details: Staphylococcus aureus, GC6467, S. aureus GC 6467
[17] = system: E. faecalis GC 4555; assay: MIC, broth microdilution; details: Enterococcus faecalis, GC4555, E. faecalis GC 4555
[18] = system: S. epidermidis GC 4935; assay: MIC, broth microdilution; details: Staphylococcus epidermidis, GC4935, S. epidermidis GC 4935
[19] = system: Staph.; assay: Range of MIC for Staph. strains, including MRSA; details: Staphylococcus aureus, MRSA
[20] = system: E. coli GC 2233; assay: MIC, broth microdilution; details: Escherichia coli, GC2233, E. coli GC 2233
[21] = read-out: Range of MIC, Staph (Mouse Serum)
[22] = read-out: Range of MIC, Staph (Water)

SMILES | MIC ([1]; Mouse Serum pre-incubation) | MIC ([1]; Water pre-incubation) | MIC ([2]; Mouse Serum pre-incubation) | MIC ([2]; Water pre-incubation) | MIC ([3]; Mouse Serum pre-incubation) | MIC ([3]; Water pre-incubation) | MIC ([4]; Mouse Serum pre-incubation) | MIC ([4]; Water pre-incubation) | MIC ([5]; Mouse Serum pre-incubation) | MIC ([5]; Water pre-incubation) | MIC ([6]; Mouse Serum pre-incubation) | MIC ([6]; Water pre-incubation) | MIC ([7]; Mouse Serum pre-incubation) | MIC ([7]; Water pre-incubation) | MIC ([8]; Mouse Serum pre-incubation) | MIC ([8]; Water pre-incubation) | MIC ([9]; Mouse Serum pre-incubation) | MIC ([9]; Water pre-incubation) | MIC ([10]; Mouse Serum pre-incubation) | MIC ([10]; Water pre-incubation) | further results
CCCN(CC(=O)Nc1cc(N(C)C)c2c(c1O)C(=O)C1=C(O)[C@]3(O)C(=O)C(C(N)=O)=C(O)[C@@H](N(C)C)[C@@H]3C[C@@H]1C2)C(=O)OCC [Example 15, ethyl 2-{[(5aR,6aS,7S,10aS)-9-(aminocarbonyl)-4,7-bis(dimethylamino)-1,8,10a,11-tetrahydroxy-10,12-dioxo-5,5a,6,6a,7,10,10a,12-octahydrotetracen-2-yl]amino}-2-oxoethyl(propyl)carbamate] | 2 µg/mL (≈ 3.11 µM) | 2 µg/mL (≈ 3.11 µM) | > 64 µg/mL | > 64 µg/mL | > 64 µg/mL | > 64 µg/mL | 8 µg/mL (≈ 12.4 µM) | 8 µg/mL (≈ 12.4 µM) | 32 µg/mL (≈ 49.7 µM) | 64 µg/mL (≈ 99.4 µM) | > 64 µg/mL | > 64 µg/mL | > 64 µg/mL | > 64 µg/mL | 32 µg/mL (≈ 49.7 µM) | 32 µg/mL (≈ 49.7 µM) | > 64 µg/mL | > 64 µg/mL | 2 µg/mL (≈ 3.11 µM) | 4 µg/mL (≈ 6.21 µM) | MIC ([11]; Mouse Serum pre-incubation): 8 µg/mL (≈ 12.4 µM); MIC ([11]; Water pre-incubation): 8 µg/mL (≈ 12.4 µM); MIC ([12]; Mouse Serum pre-incubation): 2 µg/mL (≈ 3.11 µM); MIC ([12]; Water pre-incubation): 4 µg/mL (≈ 6.21 µM); MIC ([13]; Mouse Serum pre-incubation): 2 µg/mL (≈ 3.11 µM); MIC ([13]; Water pre-incubation): 4 µg/mL (≈ 6.21 µM); MIC ([14]; Mouse Serum pre-incubation): 1 µg/mL (≈ 1.55 µM); MIC ([14]; Water pre-incubation): 1 µg/mL (≈ 1.55 µM); MIC ([15]; Mouse Serum pre-incubation): > 64 µg/mL; MIC ([15]; Water pre-incubation): 64 µg/mL (≈ 99.4 µM); MIC ([16]; Mouse Serum pre-incubation): 16 µg/mL (≈ 24.9 µM); MIC ([16]; Water pre-incubation): 16 µg/mL (≈ 24.9 µM); MIC ([17]; Mouse Serum pre-incubation): 4 µg/mL (≈ 6.21 µM); MIC ([17]; Water pre-incubation): 8 µg/mL (≈ 12.4 µM); MIC ([18]; Mouse Serum pre-incubation): 16 µg/mL (≈ 24.9 µM); MIC ([18]; Water pre-incubation): 16 µg/mL (≈ 24.9 µM); MIC [19, 21]: 2 to 16 µg/mL (≈ 3.11 to 24.9 µM); MIC [19, 22]: 4 to 16 µg/mL (≈ 6.21 to 24.9 µM); MIC ([20]; Mouse Serum pre-incubation): > 64 µg/mL; MIC ([20]; Water pre-incubation): > 64 µg/mL
CCCN(CC(=O)Nc1cc(N(C)C)c2c(c1O)C(=O)C1=C(O)[C@]3(O)C(=O)C(C(N)=O)=C(O)[C@@H](N(C)C)[C@@H]3C[C@@H]1C2)C(=O)OCC(C)C [Example 16, isobutyl 2-{[(5aR,6aS,7S,10aS)-9-(aminocarbonyl)-4,7-bis(dimethylamino)-1,8,10a,11-tetrahydroxy-10,12-dioxo-5,5a,6,6a,7,10,10a,12-octahydrotetracen-2-yl]amino}-2-oxoethyl(propyl)carbamate] | 4 µg/mL (≈ 5.95 µM) | 4 µg/mL (≈ 5.95 µM) | > 64 µg/mL | > 64 µg/mL | > 64 µg/mL | > 64 µg/mL | 4 µg/mL (≈ 5.95 µM) | 8 µg/mL (≈ 11.9 µM) | 16 µg/mL (≈ 23.8 µM) | 64 µg/mL (≈ 95.3 µM) | > 64 µg/mL | > 64 µg/mL | > 64 µg/mL | > 64 µg/mL | 16 µg/mL (≈ 23.8 µM) | 64 µg/mL (≈ 95.3 µM) | > 64 µg/mL | > 64 µg/mL | 2 µg/mL (≈ 2.98 µM) | 4 µg/mL (≈ 5.95 µM) | MIC ([11]; Mouse Serum pre-incubation): 4 µg/mL (≈ 5.95 µM); MIC ([11]; Water pre-incubation): 8 µg/mL (≈ 11.9 µM); MIC ([12]; Mouse Serum pre-incubation): 4 µg/mL (≈ 5.95 µM); MIC ([12]; Water pre-incubation): 8 µg/mL (≈ 11.9 µM); MIC ([13]; Mouse Serum pre-incubation): 2 µg/mL (≈ 2.98 µM); MIC ([13]; Water pre-incubation): 4 µg/mL (≈ 5.95 µM); MIC ([14]; Mouse Serum pre-incubation): 2 µg/mL (≈ 2.98 µM); MIC ([14]; Water pre-incubation): 4 µg/mL (≈ 5.95 µM); MIC ([15]; Mouse Serum pre-incubation): 64 µg/mL (≈ 95.3 µM); MIC ([15]; Water pre-incubation): > 64 µg/mL; MIC ([16]; Mouse Serum pre-incubation): 8 µg/mL (≈ 11.9 µM); MIC ([16]; Water pre-incubation): 8 µg/mL (≈ 11.9 µM); MIC ([17]; Mouse Serum pre-incubation): 4 µg/mL (≈ 5.95 µM); MIC ([17]; Water pre-incubation): 8 µg/mL (≈ 11.9 µM); MIC ([18]; Mouse Serum pre-incubation): 8 µg/mL (≈ 11.9 µM); MIC ([18]; Water pre-incubation): 8 µg/mL (≈ 11.9 µM); MIC [19, 21]: 2 to 8 µg/mL (≈ 2.98 to 11.9 µM); MIC [19, 22]: 4 to 8 µg/mL (≈ 5.95 to 11.9 µM); MIC ([20]; Mouse Serum pre-incubation): > 64 µg/mL; MIC ([20]; Water pre-incubation): > 64 µg/mL
